Results on two compounds are retold here after patent US20170119660A1, “PHARMACEUTICAL COMPOSITIONS FOR TRANSMUCOSAL DELIVERY” (Solubest Ltd, priority 2015, published 2017).

A short description of series [1]: Dissolution test of cannabidiol compositions in FaSSIF. It is filed as physicochemical. The settings on record: 200 ml FaSSIF, drug loading 20 mg. Details: unit not given here. As for the experimental part:
(§1) The liquid intermediates, containing the active compound(s) and the polymers, were prepared using different size glassware, magnetic plates, peristaltic pump and tubing. The spray-drying process was conducted using Mini Spray Dryer B-290 of Buchi Labortechnik AG. Tablet compression was performed with a Mini 8-D tablet press Dynamic Exim Co. Ltd. Granules preparation was performed with Dynamic Exim dry granulator. The dissolution test was performed in accordance with USP Dissolution Method <711> and FDA Dissolution Methods for Drug Products using the paddle apparatus Pharma Test model DT70 equipped with 1L and 250 ml vessels. The quantification was performed using HPLC, Dionex. Appropriate amount of prepared granules or tablets as well as control powders or tablets were dissolved in 250 ml of artificial saliva, at 37° C., with rotation speed of 75 rpm. Simulated saliva solution was prepared according to SS5 solution recipe reported in Marques et al, 2011, Dissolution Technologies, 18, 15-28. The tablets disintegration test was performed in accordance with USP Disintegration Method <701>.
Unformulated cannabidiol (CBD) and composition of the present invention (Example 13) were subjected to a dissolution test in 200 ml of Fasted State Simulating Intestinal Fluid (FaSSIF). The drug loading was 20 mg.

A short description of series [2]: Dissolution test of powders and granules in simulated saliva. It is filed as physicochemical. The settings on record: drug loading 10 mg/ml. As for the experimental part: as §1, with “The dissolution test was performed in accordance with USP Dissolution Method <711> and FDA Dissolution Methods for Drug Products using the paddle apparatus Pharma Test model DT70 equipped with 1L and 250 ml vessels.” left out, “<701>. […] The drug loading in the first set of experiments was 2.5 mg/ml.” for “<701>.”

The next series has as its system EpiOral™ buccal tissues. The experiment in a line: Franz diffusion cell permeability through human buccal tissue. The series is classed as in vitro ADME. The conditions noted are these: 7.5 mg/ml in artificial saliva. As for the experimental part:
Permeability studies were performed as follows. The barrier membranes, EpiOral™ representing a highly differentiated, three-dimensional, cultured human buccal tissue equivalent were obtained from MatTek Corp (Ashland, Mass.). Samples were mounted in vertical Franz diffusion cells (PermeGear Inc., Bethlehem, Pa.). […] The fluid in each receptor compartment was maintained at 37±0.5° C. by using a thermostatic water pump (Freed Electric, Haifa, Israel) that circulated water through the jacket surrounding each main chamber. The biological membranes were initially left in the Franz cells for 1 h in order to facilitate their hydration before the experiment. After this period, a 500-μL aliquot of 7.5 mg/ml sumatriptan solution/dispersion in artificial saliva was deposited in each donor compartment. The donor compartment was covered with Parafilm® to prevent evaporation. Receptor solution samples of 300 μL were then collected at 3, 6, 9, 12, 20, 40 and 60 minutes and replaced with 300 μL phosphate buffer, placed on ice and stored at −20° C. until subjected to HPLC or LCMS analysis. Each permeation experiment was conducted as four replicate runs.
The permeability of unformulated sumatriptan base, of API (in the base form) released from the composition of the present invention (Example 3) and of the commercial formulation Imitrex® was tested using EpiOral™ buccal tissues as described in the Methods section. EpiOral™ buccal tissues consist of normal, human-derived epithelial cells that have been cultured to form multilayered, highly differentiated models of the human buccal phenotypes.

Regarding `C=C(C)[C@@H]1CCC(C)=C[C@H]1c1c(O)cc(CCCCC)cc1O` [Unformulated CBD, Cannabidiol], the Dissolution profile was found to be 0 in series [1] (Time 0); 1.7 in series [1] (Time 10); 2.7 in series [1] (Time 20); 3.8 in series [1] (Time 30); 5.2 in series [1] (Time 45); 6.3 in series [1] (Time 60). In series [1] (Time 90), this compound yielded a Dissolution profile of 8.2.

Regarding `CNS(=O)(=O)Cc1ccc2[nH]cc(CCN(C)C)c2c1` [Unformulated sumatriptan, Sumatriptan base], the Drug released in series [2] (5 min), in series [2] (10 min) and in series [2] (20 min) was 13% throughout. Further, the “STP Permeability” value in the series with EpiOral™ buccal tissues (time point 0 min) turned out to be 0.000 μg/cm^2; in the series with EpiOral™ buccal tissues (time point 3 min) it was 0.330 μg/cm^2; with EpiOral™ buccal tissues (time point 6 min), 0.736 μg/cm^2; with EpiOral™ buccal tissues (time point 9 min), 0.964 μg/cm^2; with EpiOral™ buccal tissues (time point 12 min), 1.295 μg/cm^2; in the series with EpiOral™ buccal tissues (time point 20 min) it was 2.671 μg/cm^2. The “STP Permeability” value in the series with EpiOral™ buccal tissues (time point 40 min) is on record as 6.938 μg/cm^2; in the series on EpiOral™ buccal tissues (time point 60 min), 14.887 μg/cm^2.
